Legend:
Experiment in all cases: relative viability (nuclei count vs DMSO), 5 days (fraction); higher = more cells survive
NCI-H1755 = system: NCI-H1755
How it was run: (§1)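 Lung cancer cell lines, seeded in 1536-well plates, were treated the following day by pin tool with a single drug or with five library-drug doses (not always all listed) in √10 steps on top of a fixed anchor-drug dose. Cells were fixed and nuclei stained in one step after 5 days, and nuclei were counted. Relative viability is the nuclei count for treated wells divided by that for vehicle wells, reported as medians of duplicate plates.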

SK-LU-1 = system: SK-LU-1
How it was run: as §1

201T = system: 201T
How it was run: as §1

LU99A = system: LU99A
How it was run: as §1

EKVX = system: EKVX
How it was run: as §1

COR-L23 = system: COR-L23
How it was run: as §1

LC-2-ad = system: LC-2-ad
How it was run: as §1

NCI-H596 = system: NCI-H596
How it was run: as §1

HCC-366 = system: HCC-366
How it was run: as §1

NCI-H3122 = system: NCI-H3122
How it was run: as §1

BEN = system: BEN
How it was run: as §1

LXF-289 = system: LXF-289
How it was run: as §1

NCI-H1650 = system: NCI-H1650
How it was run: as §1

RERF-LC-KJ = system: RERF-LC-KJ
How it was run: as §1

HCC-78 = system: HCC-78
How it was run: as §1

HCC-15 = system: HCC-15
How it was run: as §1

NCI-H1944 = system: NCI-H1944
How it was run: as §1

NCI-H1734 = system: NCI-H1734
How it was run: as §1

HARA = system: HARA
How it was run: as §1

NCI-H1993 = system: NCI-H1993
How it was run: as §1

HCC-827 = system: HCC-827
How it was run: as §1

NCI-H1975 = system: NCI-H1975
How it was run: as §1

COR-L 105 = system: COR-L 105
How it was run: as §1

## O=C(O)CCCCC(CCSCc1ccccc1)SCc1ccccc1 (centres undefined) [CPI-613] + CC1(C)CCC(c2ccc(Cl)cc2)=C(CN2CCN(c3ccc(C(=O)NS(=O)(=O)c4ccc(N[C@H](CCN5CCOCC5)CSc5ccccc5)c(S(=O)(=O)C(F)(F)F)c4)cc3)CC2)C1 [Navitoclax] (partner 0.5 µM)
NCI-H1755; first compound 5 µM
  relative viability: 0.945
NCI-H1755; first compound 15.81 µM
  relative viability: 0.934
NCI-H1755; first compound 50 µM
  relative viability: 0.935
NCI-H1755; first compound 158.11 µM
  relative viability: 0.831
NCI-H1755; first compound 500 µM
  relative viability: 0.161
SK-LU-1; first compound 5 µM
  relative viability: 0.78
SK-LU-1; first compound 15.81 µM
  relative viability: 0.586
SK-LU-1; first compound 50 µM
  relative viability: 0.857
SK-LU-1; first compound 158.11 µM
  relative viability: 0.195
SK-LU-1; first compound 500 µM
  relative viability: 0.156
201T; first compound 5 µM
  relative viability: 1.23
201T; first compound 15.81 µM
  relative viability: 1.2
201T; first compound 50 µM
  relative viability: 1.17
201T; first compound 158.11 µM
  relative viability: 1.14
201T; first compound 500 µM
  relative viability: 1.09
LU99A; first compound 5 µM
  relative viability: 0.631
LU99A; first compound 15.81 µM
  relative viability: 0.77
LU99A; first compound 50 µM
  relative viability: 0.816
LU99A; first compound 158.11 µM
  relative viability: 0.142
LU99A; first compound 500 µM
  relative viability: 0.0335
EKVX; first compound 5 µM
  relative viability: 0.945
EKVX; first compound 15.81 µM
  relative viability: 0.875
EKVX; first compound 50 µM
  relative viability: 0.898
EKVX; first compound 158.11 µM
  relative viability: 0.483
EKVX; first compound 500 µM
  relative viability: 0.951
COR-L23; first compound 5 µM
  relative viability: 1.07
COR-L23; first compound 15.81 µM
  relative viability: 0.913
COR-L23; first compound 50 µM
  relative viability: 0.987
COR-L23; first compound 158.11 µM
  relative viability: 0.327
COR-L23; first compound 500 µM
  relative viability: 0.0196
LC-2-ad; first compound 5 µM
  relative viability: 0.431
LC-2-ad; first compound 15.81 µM
  relative viability: 0.354
LC-2-ad; first compound 50 µM
  relative viability: 0.297
LC-2-ad; first compound 158.11 µM
  relative viability: 0.0601
LC-2-ad; first compound 500 µM
  relative viability: 0.0074
NCI-H596; first compound 5 µM
  relative viability: 1.01
NCI-H596; first compound 15.81 µM
  relative viability: 0.925
NCI-H596; first compound 50 µM
  relative viability: 1.11
NCI-H596; first compound 158.11 µM
  relative viability: 0.362
NCI-H596; first compound 500 µM
  relative viability: 0.0344
HCC-366; first compound 5 µM
  relative viability: 1.03
HCC-366; first compound 15.81 µM
  relative viability: 0.99
HCC-366; first compound 50 µM
  relative viability: 1.1
HCC-366; first compound 158.11 µM
  relative viability: 0.774
HCC-366; first compound 500 µM
  relative viability: 0.0086
NCI-H3122; first compound 5 µM
  relative viability: 0.992
NCI-H3122; first compound 15.81 µM
  relative viability: 1.06
NCI-H3122; first compound 50 µM
  relative viability: 0.988
NCI-H3122; first compound 158.11 µM
  relative viability: 0.571
NCI-H3122; first compound 500 µM
  relative viability: 0.0262
BEN; first compound 5 µM
  relative viability: 0.0595
BEN; first compound 15.81 µM
  relative viability: 0.0465
BEN; first compound 50 µM
  relative viability: 0.0686
BEN; first compound 158.11 µM
  relative viability: 0.0624
BEN; first compound 500 µM
  relative viability: 0.0516
LXF-289; first compound 5 µM
  relative viability: 0.898
LXF-289; first compound 15.81 µM
  relative viability: 0.894
LXF-289; first compound 50 µM
  relative viability: 0.905
LXF-289; first compound 158.11 µM
  relative viability: 0.157
LXF-289; first compound 500 µM
  relative viability: 0.0115
NCI-H1650; first compound 5 µM
  relative viability: 1.17
NCI-H1650; first compound 15.81 µM
  relative viability: 1.25
NCI-H1650; first compound 50 µM
  relative viability: 1.08
NCI-H1650; first compound 158.11 µM
  relative viability: 0.16
NCI-H1650; first compound 500 µM
  relative viability: 0.034
RERF-LC-KJ; first compound 5 µM
  relative viability: 1.01
RERF-LC-KJ; first compound 15.81 µM
  relative viability: 0.747
RERF-LC-KJ; first compound 50 µM
  relative viability: 1.27
RERF-LC-KJ; first compound 158.11 µM
  relative viability: 0.964
RERF-LC-KJ; first compound 500 µM
  relative viability: 0.756
HCC-78; first compound 5 µM
  relative viability: 0.731
HCC-78; first compound 15.81 µM
  relative viability: 0.749
HCC-78; first compound 158.11 µM
  relative viability: 0.783
HCC-78; first compound 500 µM
  relative viability: 0.876
HCC-15; first compound 5 µM
  relative viability: 0.625
HCC-15; first compound 15.81 µM
  relative viability: 0.68
HCC-15; first compound 50 µM
  relative viability: 0.612
HCC-15; first compound 158.11 µM
  relative viability: 0.309
HCC-15; first compound 500 µM
  relative viability: 0.278
NCI-H1944; first compound 5 µM
  relative viability: 0.998
NCI-H1944; first compound 15.81 µM
  relative viability: 1.01
NCI-H1944; first compound 50 µM
  relative viability: 1.02
NCI-H1944; first compound 158.11 µM
  relative viability: 0.769
NCI-H1944; first compound 500 µM
  relative viability: 0.627
NCI-H1734; first compound 5 µM
  relative viability: 0.776
NCI-H1734; first compound 15.81 µM
  relative viability: 0.677
NCI-H1734; first compound 50 µM
  relative viability: 0.75
NCI-H1734; first compound 158.11 µM
  relative viability: 0.545
NCI-H1734; first compound 500 µM
  relative viability: 0.117
HARA; first compound 5 µM
  relative viability: 1.14
HARA; first compound 15.81 µM
  relative viability: 1.13
HARA; first compound 50 µM
  relative viability: 1.16
HARA; first compound 158.11 µM
  relative viability: 0.504
HARA; first compound 500 µM
  relative viability: 0.0371
NCI-H1993; first compound 5 µM
  relative viability: 0.917
NCI-H1993; first compound 15.81 µM
  relative viability: 0.917
NCI-H1993; first compound 50 µM
  relative viability: 1.06
NCI-H1993; first compound 158.11 µM
  relative viability: 0.64
NCI-H1993; first compound 500 µM
  relative viability: 0.408
HCC-827; first compound 5 µM
  relative viability: 0.983
HCC-827; first compound 15.81 µM
  relative viability: 0.96
HCC-827; first compound 50 µM
  relative viability: 0.877
HCC-827; first compound 158.11 µM
  relative viability: 0.414
HCC-827; first compound 500 µM
  relative viability: 0.065
NCI-H1975; first compound 5 µM
  relative viability: 0.988
NCI-H1975; first compound 15.81 µM
  relative viability: 1.1
NCI-H1975; first compound 50 µM
  relative viability: 1.08
NCI-H1975; first compound 158.11 µM
  relative viability: 0.816
NCI-H1975; first compound 500 µM
  relative viability: 0.0403
COR-L 105; first compound 5 µM
  relative viability: 0.847
COR-L 105; first compound 15.81 µM
  relative viability: 0.776
COR-L 105; first compound 50 µM
  relative viability: 0.719
COR-L 105; first compound 158.11 µM
  relative viability: 0.297
COR-L 105; first compound 500 µM
  relative viability: 0.286
